System: Hs578T multi-cell spheroids, viability
Assay: Anticancer human tumor Hs578T cell line growth inhibition [IpAb];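 note: drug exposure lasted 7 days before readout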
Details: for IC50: curve of first compound; for viability, T/C: stronger effect = lower value
Outline: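 Spheroids of 60% malignant cells, 25% HUVEC and 15% MSC were exposed to targeted agents combined with ipatasertib or abemaciclib. Doses started at or near clinical Cmax (10 microM when unknown) and fell in half-log steps.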

[1] = second compound 0.01 µM, first compound 0.00316 µM
[2] = second compound 0.01 µM, first compound 0.01 µM
[3] = second compound 0.01 µM, first compound 0.0316 µM
[4] = second compound 0.01 µM, first compound 0.1 µM
[5] = second compound 0.0316 µM, first compound 0.00316 µM
[6] = second compound 0.0316 µM, first compound 0.01 µM
[7] = second compound 0.0316 µM, first compound 0.0316 µM
[8] = second compound 0.0316 µM, first compound 0.1 µM
[9] = second compound 0.1 µM, first compound 0.00316 µM
[10] = second compound 0.1 µM, first compound 0.01 µM
[11] = second compound 0.1 µM, first compound 0.0316 µM
[12] = second compound 0.1 µM, first compound 0.1 µM
[13] = second compound 0.316 µM, first compound 0.00316 µM
[14] = second compound 0.316 µM, first compound 0.01 µM
[15] = second compound 0.316 µM, first compound 0.0316 µM
[16] = second compound 0.316 µM, first compound 0.1 µM
[17] = second compound 1 µM, first compound 0.00316 µM
[18] = second compound 1 µM, first compound 0.01 µM
[19] = second compound 1 µM, first compound 0.0316 µM
[20] = second compound 1 µM, first compound 0.1 µM
[21] = second compound 0.01 µM, first compound 0.316 µM
[22] = second compound 0.01 µM, first compound 1 µM
[23] = second compound 0.01 µM, first compound 3.16 µM
[24] = second compound 0.01 µM, first compound 10 µM
[25] = second compound 0.0316 µM, first compound 0.316 µM
[26] = second compound 0.0316 µM, first compound 1 µM
[27] = second compound 0.0316 µM, first compound 3.16 µM
[28] = second compound 0.0316 µM, first compound 10 µM
[29] = second compound 0.1 µM, first compound 0.316 µM
[30] = second compound 0.1 µM, first compound 1 µM
[31] = second compound 0.1 µM, first compound 3.16 µM
[32] = second compound 0.1 µM, first compound 10 µM
[33] = second compound 0.316 µM, first compound 0.316 µM
[34] = second compound 0.316 µM, first compound 1 µM
[35] = second compound 0.316 µM, first compound 3.16 µM
[36] = second compound 0.316 µM, first compound 10 µM
[37] = second compound 1 µM, first compound 0.316 µM
[38] = second compound 1 µM, first compound 1 µM
[39] = second compound 1 µM, first compound 3.16 µM
[40] = second compound 1 µM, first compound 10 µM

SMILES | IC50 (second compound 0.01 µM) [nM] | IC50 (second compound 0.0316 µM) [nM] | IC50 (second compound 0.1 µM) [nM] | IC50 (second compound 0.316 µM) [nM] | IC50 (second compound 1 µM) [nM] | viability, T/C [3] [%] | viability, T/C [4] [%] | viability, T/C [7] [%] | viability, T/C [8] [%] | viability, T/C [11] [%] | viability, T/C [12] [%] | viability, T/C [15] [%] | viability, T/C [16] [%] | viability, T/C [19] [%] | viability, T/C [20] [%] | viability, T/C [21] [%] | viability, T/C [22] [%] | viability, T/C [25] [%] | viability, T/C [26] [%] | viability, T/C [29] [%] | further results
CC(C)n1nc(-c2ccc3oc(N)nc3c2)c2c(N)ncnc21 + CCN1CCN(Cc2ccc(Nc3ncc(F)c(-c4cc(F)c5nc(C)n(C(C)C)c5c4)n3)nc2)CC1 | 7.78 | 5.53 | 5.64 | 5.59 | 10.1 | 19.9 | 13.2 | 18.3 | 14.9 | 18.7 | 15.2 | 23.1 | 15.8 | 34.9 | 19.8 |  |  |  |  |  | viability, T/C (second compound 0.01 µM, first compound 0.000316 µM): 94.1%; viability, T/C (second compound 0.01 µM, first compound 0.001 µM): 88.5%; viability, T/C [1]: 69.6%; viability, T/C [2]: 46.2%; viability, T/C (second compound 0.0316 µM, first compound 0.000316 µM): 87.5%; viability, T/C (second compound 0.0316 µM, first compound 0.001 µM): 72.3%; viability, T/C [5]: 63.2%; viability, T/C [6]: 39.8%; viability, T/C (second compound 0.1 µM, first compound 0.000316 µM): 78.8%; viability, T/C (second compound 0.1 µM, first compound 0.001 µM): 78.1%; viability, T/C [9]: 59.1%; viability, T/C [10]: 40.8%; viability, T/C (second compound 0.316 µM, first compound 0.000316 µM): 82%; viability, T/C (second compound 0.316 µM, first compound 0.001 µM): 76.2%; viability, T/C [13]: 59%; viability, T/C [14]: 40.6%; viability, T/C (second compound 1 µM, first compound 0.000316 µM): 93.5%; viability, T/C (second compound 1 µM, first compound 0.001 µM): 90.6%; viability, T/C [17]: 69%; viability, T/C [18]: 48.8%
CC1(C)CCC(CN2CCN(c3ccc(C(=O)NS(=O)(=O)c4ccc(NCC5CCOCC5)c([N+](=O)[O-])c4)c(Oc4cnc5[nH]ccc5c4)c3)CC2)=C(c2ccc(Cl)cc2)C1 + CCN1CCN(Cc2ccc(Nc3ncc(F)c(-c4cc(F)c5nc(C)n(C(C)C)c5c4)n3)nc2)CC1 | 5960 | 5580 | 5500 | 5710 | 6840 | 93.3 | 107 | 96.4 | 97 | 87.2 | 95.3 | 86.3 | 89.1 | 96.5 | 98.2 | 103 | 99.8 | 98.1 | 91.1 | 84.6 | viability, T/C [23]: 90.4%; viability, T/C [24]: 16.8%; viability, T/C [27]: 81%; viability, T/C [28]: 18.6%; viability, T/C [30]: 90.9%; viability, T/C [31]: 76.7%; viability, T/C [32]: 20.8%; viability, T/C [33]: 80.6%; viability, T/C [34]: 87.4%; viability, T/C [35]: 80.2%; viability, T/C [36]: 21.3%; viability, T/C [37]: 91.8%; viability, T/C [38]: 96.7%; viability, T/C [39]: 101%; viability, T/C [40]: 26.9%
CCCS(=O)(=O)Nc1ccc(F)c(C(=O)c2c[nH]c3ncc(-c4ccc(Cl)cc4)cc23)c1F + CCN1CCN(Cc2ccc(Nc3ncc(F)c(-c4cc(F)c5nc(C)n(C(C)C)c5c4)n3)nc2)CC1 | 4380 | 4190 | 4320 | 4670 | 5520 | 96.9 | 103 | 95.3 | 100 | 90.8 | 87.6 | 92.4 | 89.5 | 106 | 97.4 | 99.1 | 97.4 | 98.6 | 92.4 | 87.1 | viability, T/C [23]: 67%; viability, T/C [24]: 8.02%; viability, T/C [27]: 64.4%; viability, T/C [28]: 5.43%; viability, T/C [30]: 82.5%; viability, T/C [31]: 66.4%; viability, T/C [32]: 6.9%; viability, T/C [33]: 87.8%; viability, T/C [34]: 79.9%; viability, T/C [35]: 71.7%; viability, T/C [36]: 11.4%; viability, T/C [37]: 102%; viability, T/C [38]: 104%; viability, T/C [39]: 87.1%; viability, T/C [40]: 10.3%
COc1c(OCCCN2CCOCC2)ccc2c3n(c(=NC(=O)c4cnc(N)nc4)nc12)CCN3 + CCN1CCN(Cc2ccc(Nc3ncc(F)c(-c4cc(F)c5nc(C)n(C(C)C)c5c4)n3)nc2)CC1 | 22.8 | 20.7 | 15.2 | 17.1 | 25.3 | 43.3 | 26.9 | 40.5 | 28 | 40.9 | 26.8 | 42.1 | 26.1 | 43.1 | 32.5 | 16 | 8.09 | 11.6 | 7.23 | 13.8 | viability, T/C [1]: 88.7%; viability, T/C [2]: 65.9%; viability, T/C [5]: 75.6%; viability, T/C [6]: 63.6%; viability, T/C [9]: 75.8%; viability, T/C [10]: 53.5%; viability, T/C [30]: 6.99%; viability, T/C [13]: 82.1%; viability, T/C [14]: 55.8%; viability, T/C [33]: 15.5%; viability, T/C [34]: 7.2%; viability, T/C [17]: 91.5%; viability, T/C [18]: 67.4%; viability, T/C [37]: 20.1%; viability, T/C [38]: 9.99%
